# pIC50: −log10 of the molar value.
# Target: T1, Glutamate carboxypeptidase 2 [44-750] (Homo sapiens, UniProt Q04609)
# T1 construct: 44-750
# Assay: Determination of Inhibition Concentration Values (IC50)
# Conditions: pH 7.4; 37 °C
# Procedure: The inhibition concentration values of GCPII were determined using the radioenzymatic assay with [3H] NAAG (radiolabeled on the terminal glutamate). The enzyme was preincubated in the presence of increasing concentrations of inhibitors in reaction buffer. The reaction was initiated by adding the substrate to the reaction mixtures. After 20 min, the reaction was terminated, and the glutamate was separated from the reaction mixture by ion-exchange chromatography and quantified by liquid scintillation. Duplicate reactions were carried out for each experimental point. The IC50 values were calculated from plots of Vi/V0 (ratio of individual reaction rates to the rate of an uninhibited reaction) versus inhibitor concentration using the GraFit program (version 5.0.4, Erithacus Software Limited).
# T1 sequence (Q04609 44-750): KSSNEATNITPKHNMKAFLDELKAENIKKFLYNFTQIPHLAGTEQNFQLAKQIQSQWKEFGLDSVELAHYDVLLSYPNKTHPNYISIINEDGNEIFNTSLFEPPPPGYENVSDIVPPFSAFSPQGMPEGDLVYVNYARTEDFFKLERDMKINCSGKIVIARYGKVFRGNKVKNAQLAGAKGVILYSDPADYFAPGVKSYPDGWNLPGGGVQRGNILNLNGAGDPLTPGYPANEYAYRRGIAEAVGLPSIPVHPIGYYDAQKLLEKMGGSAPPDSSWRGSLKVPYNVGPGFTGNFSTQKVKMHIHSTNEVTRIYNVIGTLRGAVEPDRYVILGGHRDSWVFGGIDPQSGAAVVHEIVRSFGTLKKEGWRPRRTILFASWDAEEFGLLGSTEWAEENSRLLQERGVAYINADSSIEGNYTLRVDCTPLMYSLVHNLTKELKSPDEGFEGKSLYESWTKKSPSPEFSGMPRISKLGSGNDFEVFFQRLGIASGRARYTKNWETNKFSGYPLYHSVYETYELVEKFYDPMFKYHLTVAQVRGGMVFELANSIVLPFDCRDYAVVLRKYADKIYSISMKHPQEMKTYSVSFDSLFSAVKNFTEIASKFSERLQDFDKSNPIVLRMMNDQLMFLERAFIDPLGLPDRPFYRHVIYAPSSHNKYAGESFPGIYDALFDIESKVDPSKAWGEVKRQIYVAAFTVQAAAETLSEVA
compound,measurement,value
Cc1onc(O)c1C[C@H](N)C(=O)O,pIC50,< 2.00

# Source: BindingDB's records for doi:10.1021/jm070133w (Nci-Fcrdc, 2007)
